Data: US12384797B2, “Thioeno[3,2-b] pyridin-7-amine compounds for treating familial dysautonomia” (PTC THERAPEUTICS, INC., priority 2019, dated 2025)

system: Elongator complex protein 1 (ELP1, also referred to as IKBKAP); assay: IKBKAP-HTRF assay (IKBKAP protein in lysates of FD patient-derived fibroblasts); format: cell-based, human; details: 48 hours incubation, 7-point concentration curve
Outline: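 Sandwich HTRF with two labelled anti-IKAP antibodies (overnight, 4 °C) measured IKBKAP in lysates of FD patient fibroblasts. Cells were exposed to compound for 48 h at 37 °C (7-point curve, 3.16-fold steps, triplicates). EC2x is the dose doubling IKBKAP versus DMSO control; MFI is sample ΔF divided by vehicle ΔF.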

| SMILES | EC2x for IKBKAP protein expression (concentration producing two times the amount of IKBKAP protein vs DMSO vehicle control) | MFI (maximum fold increase in IKBKAP protein abundance relative to the vehicle control) |
| --- | --- | --- |
| N[C@@H](CCO)Cc1sc2c(NCc3ccccc3F)cc(Cl)nc2c1Br [Compound 100, (3S)-3-amino-4-(3-bromo-5-chloro-7-{[(2-fluorophenyl)methyl]amino}thieno[3,2-b]pyridin-2-yl)butan-1-ol] | ***** (≤0.005 μM is indicated by five stars (*****)) | ***** (>4.9 is indicated by five stars (*****)) |
| CC[C@H](N)Cc1sc2c(NCc3cccs3)cc(Cl)nc2c1Br [Compound 73, 2-[(2S)-2-aminobutyl]-3-bromo-5-chloro-N-[(thiophen-2-yl)methyl]thieno[3,2-b]pyridin-7-amine] | ***** (≤0.005 μM is indicated by five stars (*****)) | ***** (>4.9 is indicated by five stars (*****)) |
| Cc1c(C[C@@H](N)C(=O)N(C)C)sc2c(NCc3ccco3)cc(Cl)nc12 [Compound 116, 3-(5-chloro-7-{[(furan-2-yl)methyl]amino}-3-methylthieno[3,2-b]pyridin-2-yl)-N,N-dimethyl-D-alaninamide] | **** (between >0.005 μM and ≤0.02 μM is indicated by four stars (****)) | ***** (>4.9 is indicated by five stars (*****)) |
